Source: ChEMBL document CHEMBL1240437, “Structural characterization and antibacterial activity against clinical isolates of Staphylococcus of N-phenylamide of monensin A and its 1:1 complexes with monovalent cations” (2010)
In brackets after ≈: the same amount, converted by molar mass.

Key:
Type in all cases: functional
Staphylococcus aureus [1] = assay: Antimicrobial activity against methicillin-susceptible Staphylococcus aureus 328/08 after 18 hrs by disc-diffusion method; details: 328/08, 18 h
Staphylococcus aureus [2] = assay: Antimicrobial activity against methicillin-resistant Staphylococcus aureus 334/08 after 18 hrs by disc-diffusion method; details: 334/08, 18 h
[3] = tested on: Staphylococcus epidermidis; assay: Antimicrobial activity against methicillin-resistant Staphylococcus epidermidis 317/08 after 18 hrs by disc-diffusion method; details: 317/08, 18 h
Staphylococcus aureus [4] = assay: Antimicrobial activity against methicillin-susceptible Staphylococcus aureus 324/08 after 18 hrs by disc-diffusion method; details: 324/08, 18 h
Staphylococcus aureus [5] = assay: Antimicrobial activity against methicillin-resistant Staphylococcus aureus 335/08 after 18 hrs by disc-diffusion method; details: 335/08, 18 h
[6] = tested on: Staphylococcus epidermidis; assay: Antimicrobial activity against methicillin-resistant Staphylococcus epidermidis 293/08 after 18 hrs by disc-diffusion method; details: 293/08, 18 h
[7] = tested on: Staphylococcus epidermidis; assay: Antimicrobial activity against methicillin-resistant Staphylococcus epidermidis 290/08 after 18 hrs by disc-diffusion method; details: 290/08, 18 h
Staphylococcus aureus [8] = assay: Antimicrobial activity against methicillin-resistant Staphylococcus aureus 330/08 after 18 hrs by disc-diffusion method; details: 330/08, 18 h
Staphylococcus aureus [9] = assay: Antimicrobial activity against methicillin-susceptible Staphylococcus aureus 327/08 after 18 hrs by disc-diffusion method; details: 327/08, 18 h
Staphylococcus aureus [10] = assay: Antimicrobial activity against methicillin-susceptible Staphylococcus aureus 320/08 after 18 hrs by disc-diffusion method; details: 320/08, 18 h
[11] = tested on: Staphylococcus epidermidis; assay: Antimicrobial activity against methicillin-resistant Staphylococcus epidermidis 289/08 after 18 hrs by disc-diffusion method; details: 289/08, 18 h
[12] = tested on: Staphylococcus epidermidis; assay: Antimicrobial activity against methicillin-resistant Staphylococcus epidermidis 292/08 after 18 hrs by disc-diffusion method; details: 292/08, 18 h
Staphylococcus aureus [13] = assay: Antimicrobial activity against methicillin-resistant Staphylococcus aureus 307/08 after 18 hrs by disc-diffusion method; details: 307/08, 18 h
[14] = tested on: Staphylococcus epidermidis; assay: Antimicrobial activity against methicillin-resistant Staphylococcus epidermidis 291/08 after 18 hrs by disc-diffusion method; details: 291/08, 18 h
[15] = tested on: Staphylococcus epidermidis; assay: Antimicrobial activity against methicillin-resistant Staphylococcus epidermidis 315/08 after 18 hrs by disc-diffusion method; details: 315/08, 18 h
[16] = tested on: Staphylococcus epidermidis; assay: Antimicrobial activity against methicillin-resistant Staphylococcus epidermidis 318/08 after 18 hrs by disc-diffusion method; details: 318/08, 18 h
[17] = tested on: Staphylococcus epidermidis; assay: Antimicrobial activity against methicillin-resistant Staphylococcus epidermidis 311/08 after 18 hrs by disc-diffusion method; details: 311/08, 18 h
Staphylococcus aureus [18] = assay: Antimicrobial activity against methicillin-susceptible Staphylococcus aureus 326/08 after 18 hrs by disc-diffusion method; details: 326/08, 18 h
Staphylococcus aureus [19] = assay: Antimicrobial activity against methicillin-resistant Staphylococcus aureus 309/08 after 18 hrs by disc-diffusion method; details: 309/08, 18 h
Staphylococcus aureus [20] = assay: Antimicrobial activity against methicillin-resistant Staphylococcus aureus 331/08 after 18 hrs by disc-diffusion method; details: 331/08, 18 h
[21] = tested on: Staphylococcus epidermidis; assay: Antimicrobial activity against methicillin-resistant Staphylococcus epidermidis 316/08 after 18 hrs by disc-diffusion method; details: 316/08, 18 h
Staphylococcus aureus [22] = assay: Antimicrobial activity against methicillin-susceptible Staphylococcus aureus 319/08 after 18 hrs by disc-diffusion method; details: 319/08, 18 h
Staphylococcus aureus [23] = assay: Antimicrobial activity against methicillin-resistant Staphylococcus aureus 332/08 after 18 hrs by disc-diffusion method; details: 332/08, 18 h
Staphylococcus aureus [24] = assay: Antimicrobial activity against methicillin-susceptible Staphylococcus aureus 321/08 after 18 hrs by disc-diffusion method; details: 321/08, 18 h
Staphylococcus aureus [25] = assay: Antimicrobial activity against methicillin-susceptible Staphylococcus aureus 338/08 after 18 hrs by disc-diffusion method; details: 338/08, 18 h
Staphylococcus aureus [26] = assay: Antimicrobial activity against methicillin-resistant Staphylococcus aureus 329/08 after 18 hrs by disc-diffusion method; details: 329/08, 18 h
Staphylococcus aureus [27] = assay: Antimicrobial activity against methicillin-susceptible Staphylococcus aureus 322/08 after 18 hrs by disc-diffusion method; details: 322/08, 18 h
Staphylococcus aureus [28] = assay: Antimicrobial activity against methicillin-susceptible Staphylococcus aureus 339/08 after 18 hrs by disc-diffusion method; details: 339/08, 18 h
Staphylococcus aureus [29] = assay: Antimicrobial activity against methicillin-resistant Staphylococcus aureus 333/08 after 18 hrs by disc-diffusion method; details: 333/08, 18 h
Staphylococcus aureus [30] = assay: Antimicrobial activity against methicillin-resistant Staphylococcus aureus 308/08 after 18 hrs by disc-diffusion method; details: 308/08, 18 h

Row | SMILES | MIC (Staphylococcus aureus [1]) [µM] | MIC (Staphylococcus aureus [2]) [µM] | MIC [3] [µM] | MIC (Staphylococcus aureus [4]) [µM] | MIC (Staphylococcus aureus [5]) [µM] | MIC [6] [µM] | MIC [7] [µM] | MIC (Staphylococcus aureus [8]) [µM] | MIC (Staphylococcus aureus [9]) [µM] | MIC (Staphylococcus aureus [10]) [µM] | MIC [11] [µM] | MIC [12] [µM] | MIC (Staphylococcus aureus [13]) [µM] | MIC [14] [µM] | MIC [15] [µM] | MIC [16] [µM] | MIC [17] [µM] | MIC (Staphylococcus aureus [18]) [µM] | MIC (Staphylococcus aureus [19]) [µM] | MIC (Staphylococcus aureus [20]) [µM] | also measured
1 | CC[C@@]1([C@H]2O[C@@H]([C@H]3O[C@@](O)(CO)[C@H](C)C[C@@H]3C)C[C@@H]2C)CC[C@@H]([C@]2(C)CC[C@]3(C[C@H](O)[C@@H](C)[C@@H]([C@@H](C)[C@@H](OC)[C@H](C)C(=O)Nc4ccccc4)O3)O2)O1 | 33.5 (≈ 25 µg/mL) | 8.37 (≈ 6.24 µg/mL) | 8.37 (≈ 6.24 µg/mL) | 8.37 (≈ 6.24 µg/mL) | 8.37 (≈ 6.24 µg/mL) | 8.37 (≈ 6.24 µg/mL) | 16.8 (≈ 12.5 µg/mL) | 8.37 (≈ 6.24 µg/mL) | 8.37 (≈ 6.24 µg/mL) | 16.8 (≈ 12.5 µg/mL) | 8.37 (≈ 6.24 µg/mL) | 16.8 (≈ 12.5 µg/mL) | 8.37 (≈ 6.24 µg/mL) | 8.37 (≈ 6.24 µg/mL) | 8.37 (≈ 6.24 µg/mL) | 33.5 (≈ 25 µg/mL) | 8.37 (≈ 6.24 µg/mL) | 8.37 (≈ 6.24 µg/mL) | 8.37 (≈ 6.24 µg/mL) | 8.37 (≈ 6.24 µg/mL) | MIC [21]: 8.37 µM (≈ 6.24 µg/mL); MIC (Staphylococcus aureus [22]): 8.37 µM (≈ 6.24 µg/mL); MIC (Staphylococcus aureus [23]): 8.37 µM (≈ 6.24 µg/mL); MIC (Staphylococcus aureus [24]): 16.8 µM (≈ 12.5 µg/mL); MIC (Staphylococcus aureus [25]): 8.37 µM (≈ 6.24 µg/mL); MIC (Staphylococcus aureus [26]): 8.37 µM (≈ 6.24 µg/mL); MIC (Staphylococcus aureus [27]): 16.8 µM (≈ 12.5 µg/mL); MIC (Staphylococcus aureus [28]): 33.5 µM (≈ 25 µg/mL); MIC (Staphylococcus aureus [29]): 8.37 µM (≈ 6.24 µg/mL); MIC (Staphylococcus aureus [30]): 8.37 µM (≈ 6.24 µg/mL)
2 | CC[C@@]1([C@@H]2O[C@@H]([C@H]3O[C@@](O)(CO)[C@H](C)C[C@@H]3C)C[C@@H]2C)CC[C@H]([C@]2(C)CC[C@]3(C[C@H](O)[C@@H](C)[C@@H]([C@@H](C)[C@@H](OC)[C@H](C)C(=O)O)O3)O2)O1 [MONENSIN] | 2.98 (≈ 2 µg/mL) | 1.49 (≈ 1 µg/mL) | 1.49 (≈ 1 µg/mL) | 1.49 (≈ 1 µg/mL) | 1.49 (≈ 1 µg/mL) | 1.49 (≈ 1 µg/mL) | 2.98 (≈ 2 µg/mL) | 1.49 (≈ 1 µg/mL) | 2.98 (≈ 2 µg/mL) | 2.98 (≈ 2 µg/mL) | 2.98 (≈ 2 µg/mL) | 2.98 (≈ 2 µg/mL) | 2.98 (≈ 2 µg/mL) | 2.98 (≈ 2 µg/mL) | 1.49 (≈ 1 µg/mL) | 5.96 (≈ 4 µg/mL) | 1.49 (≈ 1 µg/mL) | 2.98 (≈ 2 µg/mL) | 2.98 (≈ 2 µg/mL) | 1.49 (≈ 1 µg/mL) | MIC [21]: 1.49 µM (≈ 1 µg/mL); MIC (Staphylococcus aureus [22]): 2.98 µM (≈ 2 µg/mL); MIC (Staphylococcus aureus [23]): 1.49 µM (≈ 1 µg/mL); MIC (Staphylococcus aureus [24]): 2.98 µM (≈ 2 µg/mL); MIC (Staphylococcus aureus [25]): 2.98 µM (≈ 2 µg/mL); MIC (Staphylococcus aureus [26]): 2.98 µM (≈ 2 µg/mL); MIC (Staphylococcus aureus [27]): 2.98 µM (≈ 2 µg/mL); MIC (Staphylococcus aureus [28]): 5.96 µM (≈ 4 µg/mL); MIC (Staphylococcus aureus [29]): 1.49 µM (≈ 1 µg/mL); MIC (Staphylococcus aureus [30]): 2.98 µM (≈ 2 µg/mL)
